Laboratory results published in the NIST ThermoML archive (doi:10.1021/je9008156).
Numbers after ± are expanded uncertainties.

Conditions: Crystal; visual observation

## Nc1c(I)c(C(=O)NCC(O)CO)c(I)c(C(=O)NCC(O)CO)c1I (stereo unspecified)
  Normal melting temperature: 193.00 ± 0.5 °C
